In patent US20210391038A1, “SPECIFICALLY-SHAPED CRYSTAL OF COMPOUND AND METHOD FOR PRODUCING SAME” (TOWA PHARMACEUTICAL CO., LTD., priority 2018, published 2021):
Where a name gives a salt, the structure may show the parent alone. Read-outs that look alike come from different tables or passages of the source. Blank lines part the entries; values can stand above or below the compound they belong to.

Key:
Format in all cases: physicochemical
[1] = Particle density, true density and particle packing rate; conditions: trihydrate; for Particle packing rate: particle density / true density x 100
Description: “Particle density” in the present description is mass per unit volume when the volume of the substance itself as well as the volume of the open void and the closed void are included as the volume of polycrystalline particles. For example, when the polycrystalline particles are spherical particles, the particle density is calculated by the following formula using the mean mass of the polycrystalline particles and the mean volume of the polycrystalline particles:
Here, the mean mass of polycrystalline particles is calculated by measuring the number of polycrystalline particles contained in 1.0 mg or more, preferably 5.0 mg or more, and more preferably 10.0 mg or more of a sample by a scanner, etc. The mean volume of crystal particles is obtained by averaging the volume calculated by photographing 500 or more, preferably 1,000 or more, and more preferably 5,000 or more crystal particles by a light microscope, etc., using an equivalent circle diameter obtained from the projected area of polycrystalline particles, and assuming that the polycrystalline particles are true spheres. At this time, it is desirable that the distribution of the equivalent circle diameter is unimodal and the sharpness value is less than 1.5.
“Particle packing rate” of a polycrystal in the present description is a value calculated by the following formula:
Particle packing rate (%)=(particle density)/(true density of compound)×100 [Equation 8]
Here, “true density of compound” is a density of a substance itself not including a void. If no void exists at all inside or on the surface of a particle, the particle packing rate is 100%. The true density of a compound can be obtained by dry density measurement by the constant volume expansion method. Examples of the measuring device include a dry automatic densimeter AccuPyc II 1340-10CC manufactured by Shimadzu Corporation.
The particle size distribution was measured in a dry manner using a spray particle size distribution analyzer AEROTRAC LDSA-SPR3500A manufactured by Microtrac Inc. The particle size distribution in Examples 2 and 7 was measured in a dry manner using a laser diffraction particle size distribution measurement MASTERSIZER 3000 manufactured by Malvern Panalytical Ltd. SEM images were measured using a scanning electron microscope JSM-IT100 manufactured by JEOL Ltd. Light microscope images were measured using an upright microscope BX53M manufactured by Olympus Corporation and a microscope digital camera DP74 manufactured by Olympus Corporation. Images for measuring the number of particles were obtained by a scanner GT-X830 manufactured by SEIKO EPSON CORPORATION. The powder X-ray diffraction (XRD) was measured using a desktop X-ray diffraction device MiniFlex300 manufactured by Rigaku Corporation. The specific surface area was measured by the BET fluid process (gas used: pure nitrogen) using a fully automatic specific surface area measuring device Macsorb HM-1208 manufactured by Mountech Co., Ltd. The moisture content was measured using a trace moisture measuring device AQ-2200 manufactured by […] SANGYO Co., Ltd. The dissolution profile was measured using μDISS Profiler manufactured by Pion Inc. Centrifugal classification was performed using a high-efficiency precision forced air classifier Lab Calssiel N-01 manufactured by SEISHIN […] Co., Ltd. Image analysis was performed using image processing software ImageJ developed by the National Institute of Health (NIH). The particle strength was measured using a particle hardness measuring device NEW GRANO manufactured by OKADA SEIKO CO., LTD. The true density was measured using a dry automatic densimeter AccuPyc II 1340-10CC manufactured by Shimadzu Corporation. The purity of a compound was measured by a high performance liquid chromatograph (LC-20A) manufactured by Shimadzu Corporation. […]

[2] = Particle size distribution (d50, sharpness index); design: key to sharpness index of the crystal thus obtained / sharpness index of the fine powders: calculated by formula from d10, d50, d90; 1.0 = most uniform particle size
Excerpt: d10 in the present description is a value obtained from a particle size distribution analyzer, and represents a particle size of a particle corresponding to 10% of accumulation from the smaller particle side in the particle size distribution based on the volume.
d50 in the present description is a value obtained from a particle size distribution analyzer, and represents a particle size of a particle corresponding to 50% of accumulation from the smaller particle side in the particle size distribution based on the volume.
“Sharpness index” in the present description is an index representing the uniformity of a particle size of a particle in a powder, and a sharpness index of 1.0 represents a powder having the most uniform particle size. The closer the sharpness index is to 1.0, the more the particle size of the powder is uniform. Specifically, the sharpness index represents a value calculated using the following formula from the values of d10, d50, and d90 measured by a particle size distribution analyzer:
Images for measuring the number of particles were obtained by a scanner GT-X830 manufactured by SEIKO EPSON CORPORATION. The powder X-ray diffraction (XRD) was measured using a desktop X-ray diffraction device MiniFlex300 manufactured by Rigaku Corporation. […] The particle strength was measured using a particle hardness measuring device NEW GRANO manufactured by OKADA SEIKO CO., LTD. […] The purity of a compound was measured by a high performance liquid chromatograph (LC-20A) manufactured by Shimadzu Corporation.

[3] = Sphericity from SEM images (ImageJ); design: key: 1 = true sphere; closer to 1 = more spherical; mean of ≥5 particles
Excerpt: In the present description, “spherulite” means a crystal aggregate (polycrystal) which has a radial or concentric thin layered structure and has a spherical outer shape. Whether the crystal obtained by the method of the present invention is a spherulite or not can be determined, for example, by observing the outer shape of the crystal using SEM. For example, it can be discriminated by cutting the crystal aggregate and observing the internal structure thereof using SEM. The sphericity of the spherulite obtained by the method of the present invention is usually 0.60 or more, preferably 0.70 or more, more preferably 0.80 or more, particularly preferably 0.90 or more, and most preferably 0.95 or more. The sphericity can be calculated by the following method.
When an image of particles taken by SEM is analyzed using image processing software ImageJ, a coordinate group representing the position of pixels forming the outline of a particle is obtained. The length of the coordinate group is defined as N, and one pixel coordinate of each outline is defined as p[i] (1≤i≤N). The angle between a straight line l(k) connecting two points p[k] and p[k+N/D] and a straight line m(k) connecting two points p[k+N/D] and p[k+2N/D] is defined as θ(k) (−180°<θ<180°) (1≤k≤N, 1≤D≤N). D corresponds to the number of partitions of the outline. When N/D is not a natural number, the value is defined as the quotient obtained by dividing N by D. By calculating this angle with k=1 to N, N pieces of θ value can be obtained.
When the particle is a true sphere, θ(k) is 360/D, and the closer the particle is to a true sphere, the closer θ(k) is to this value. The error between θ(k) and the true value 360/D is evaluated by the root-mean-square error (RMSE) of the following formula:
Using the RMSE value of when D is 10 (θ(k)=36°), the sphericity is defined by the following formula: […]
The sphericity is 1 in a true sphere, and the closer the particle is to a true sphere, the closer the sphericity is to 1. Meanwhile, the sphericity of an ellipse whose long axis is infinitely long is zero. The sphericity is measured for five or more particles to calculate the mean. This mean is defined as the sphericity of each sample (see FIGS. 42 and 43).

[4] = dry particle size distribution, volume based
[5] = SEM image analysis, mean of particles
[6] = calculated from d10, d50, d90, trihydrate
[7] = dry particle size distribution, volume based, trihydrate
[8] = SEM image analysis, mean of particles, trihydrate

SMILES: COc1ccc2[n-]c([S@@+]([O-])Cc3ncc(C)c(OC)c3C)nc2c1.COc1ccc2[n-]c([S@@+]([O-])Cc3ncc(C)c(OC)c3C)nc2c1.O.O.O.[Mg+2] [Sample 3, esomeprazole magnesium trihydrate]
- Particle packing rate [1]: 88%
- Particle density [1]: 1.21 g/mL

- sharpness index of the crystal thus obtained ([2]; calculated from d10, d50, d90): 4.6
- d50 of the crystal thus obtained [2, 4]: 16 μm
- sphericity of the spherulite [3, 5]: 0.87±0.08
SMILES: CC[C@H]1OC(=O)[C@H](C)[C@@H](O[C@H]2C[C@@](C)(OC)[C@@H](O)[C@H](C)O2)[C@H](C)[C@@H](O[C@@H]2O[C@H](C)C[C@H](N(C)C)[C@H]2O)[C@](C)(OC)C[C@@H](C)C(=O)[C@H](C)[C@@H](O)[C@]1(C)O [Example 13, clarithromycin]

SMILES: COc1ccc2[n-]c([S@@+]([O-])Cc3ncc(C)c(OC)c3C)nc2c1.COc1ccc2[n-]c([S@@+]([O-])Cc3ncc(C)c(OC)c3C)nc2c1.O.O.O.[Mg+2] [Sample 1, esomeprazole magnesium trihydrate]
- Particle packing rate [1]: 54%
- Particle density [1]: 0.74 g/mL

SMILES: COc1ccc2[n-]c([S@@+]([O-])Cc3ncc(C)c(OC)c3C)nc2c1.COc1ccc2[n-]c([S@@+]([O-])Cc3ncc(C)c(OC)c3C)nc2c1.O.O.O.[Mg+2] [Example 10(2), esomeprazole magnesium trihydrate]
- sharpness index of the crystal thus obtained [2, 6]: 1.48
- d50 of the crystal thus obtained [2, 7]: 9.6 μm
- d50 ([2]; samples of filtration test (Table 7), trihydrate): 9.6 μm
- sphericity of the spherulite [3, 8]: 0.80±0.05
- sphericity of the non-spherulite ([3]; non-spherulite crystals, trihydrate): 0.50±0.06

SMILES: COc1ccc2[n-]c([S@@+]([O-])Cc3ncc(C)c(OC)c3C)nc2c1.COc1ccc2[n-]c([S@@+]([O-])Cc3ncc(C)c(OC)c3C)nc2c1.O.O.O.[Mg+2] [Example 2, esomeprazole magnesium trihydrate]
- sharpness index of the fine powders ([2]; after centrifugal classification and sieving): 1.3
- d50 of the fine powders ([2]; after centrifugal classification and sieving (on 390 M, 38 μm)): 54.6 μm
- sharpness index of the crystal thus obtained [2, 6]: 2.5
- d50 of the crystal thus obtained [2, 7]: 56.1 μm
- sphericity of the spherulite [3, 8]: 0.95±0.03

- sharpness index of the crystal thus obtained ([2]; calculated from d10, d50, d90): 2.29
- d50 of the crystal thus obtained [2, 4]: 116 μm
- sphericity of the spherulite [3, 5]: 0.69±0.18
SMILES: Cc1cccc(C)c1NC(=O)CC12CCCN1CCC2.Cl [Example 25, pilsicainide hydrochloride anhydride]

- sharpness index of the crystal thus obtained ([2]; calculated from d10, d50, d90): 1.66
- d50 of the crystal thus obtained [2, 4]: 148 μm
- sphericity of the spherulite [3, 5]: 0.98±0.01
SMILES: Nc1nc(CC(=O)Nc2ccc(CCNC[C@H](O)c3ccccc3)cc2)cs1 [Example 27, mirabegron]

SMILES: Cn1c(=O)c2[nH]cnc2n(C)c1=O.O.O.O.O.[Mg] [Example 26, theophylline magnesium salt tetrahydrate]
- sharpness index of the crystal thus obtained ([2]; calculated from d10, d50, d90): 3.06
- d50 of the crystal thus obtained [2, 4]: 43.0 μm
- sphericity of the spherulite [3, 5]: 0.95±0.02

SMILES: CNCC[C@H](Oc1cccc2ccccc12)c1cccs1 [Example 15, duloxetine hydrochloride]
- d50 of the crystal thus obtained [2]: 138 μm
- sharpness index of the crystal thus obtained [2]: 4.7
- sphericity of the spherulite [3]: 0.92±0.07

SMILES: COc1ccc2[n-]c([S@@+]([O-])Cc3ncc(C)c(OC)c3C)nc2c1.COc1ccc2[n-]c([S@@+]([O-])Cc3ncc(C)c(OC)c3C)nc2c1.O.O.O.[Mg+2] [Example 7, esomeprazole magnesium trihydrate]
- sharpness index of the crystal thus obtained [2, 6]: 1.40
- d50 of the crystal thus obtained [2, 7]: 189 μm
- sphericity of the spherulite [3, 8]: 0.97±0.01

- sharpness index of the crystal thus obtained ([2]; calculated from d10, d50, d90): 3.77
- d50 of the crystal thus obtained [2, 4]: 33.5 μm
- sphericity of the spherulite [3, 5]: 0.93±0.04
SMILES: Cc1cc(N2CCN([C@@H]3CN[C@H](C(=O)N4CCSC4)C3)CC2)n(-c2ccccc2)n1 [Example 22, teneligliptin hydrobromide hydrate]

- sharpness index of the crystal thus obtained ([2]; calculated from d10, d50, d90): 2.61
- d50 of the crystal thus obtained [2, 4]: 61.3 μm
- sphericity of the spherulite [3, 5]: 0.95±0.03
SMILES: CCCCCCOC(=O)N=C(N)c1ccc(NCc2nc3cc(C(=O)N(CCC(=O)OCC)c4ccccn4)ccc3n2C)cc1 [Example 24, dabigatran etexilate methanesulfonate]

SMILES: COc1ccc2[n-]c([S@@+]([O-])Cc3ncc(C)c(OC)c3C)nc2c1.COc1ccc2[n-]c([S@@+]([O-])Cc3ncc(C)c(OC)c3C)nc2c1.O.O.O.[Mg+2] [Sample 2, esomeprazole magnesium trihydrate]
- Particle packing rate [1]: 64%
- Particle density [1]: 0.87 g/mL

- sharpness index of the crystal thus obtained ([2]; calculated from d10, d50, d90): 2.27
- d50 of the crystal thus obtained [2, 4]: 48.4 μm
- sphericity of the spherulite [3, 5]: 0.85±0.07
SMILES: N[C@@H](CCC(=O)N[C@@H](CS)C(=O)NCC(=O)O)C(=O)O [Example 23, glutathione]

- sharpness index of the crystal thus obtained ([2]; calculated from d10, d50, d90): 1.7
- d50 of the crystal thus obtained [2, 4]: 133 μm
- sphericity of the spherulite [3, 5]: 0.96±0.02
SMILES: COC(=O)[C@H](c1ccccc1Cl)N1CCc2sccc2C1 [Example 16, clopidogrel sulfate]

SMILES: O.O.O.O.O.O.O.O.O=C([O-])[O-].O=C([O-])[O-].O=C([O-])[O-].[La+3].[La+3] [Example 17, lanthanum carbonate octahydrate]
- d50 of the crystal thus obtained [2]: 105 μm
- sharpness index of the crystal thus obtained [2]: 1.4
- sphericity of the spherulite [3]: 0.69±0.08
